The values that follow come from patent US9950004B2, “Treatment and prevention of learning and memory disorders” (priority 2012, dated 2018).

Experiment [1] has as its system capillary circulation. The experiment is described as follows: Laser Doppler study of creams in five human subjects (second Example 7). Type of experiment: in vivo. To be noted: positive control formulation containing 0.1% methyl nicotinate. The text has this: This example illustrates delivery of nitric oxide formulations to five human subjects, using procedures and formulations similar to those discussed in Example 6. Each person served as their own control for the testing. A Moor Instruments Laser Doppler was used to determine circulation. […] The formulations used produce positive, almost immediate results when applied to the skin which, in these studies, was manifested by vasodilatation of the cutaneous vascular system.
For each subject, the following creams were applied: a negative control formulation (containing no NO), 0.010 gram of a 10,000 ppm NO formulation, 0.020 gram of a 10,000 ppm NO formulation, and a positive control formulation containing 0.1% methyl nicotinate. The formulations were prepared using procedures similar to those discussed in Example 1.

The test system of experiment [2] is micro-capillary blood flow to skin. The experiment is described as follows: Laser Doppler study, closed Hilltop chamber on forearm, three human female subjects (Example 6). Type of experiment: in vivo. To be noted: 1/10% in alcohol applied to the skin. The text has this:
The formulation used in these studies contained nitric oxide dispersed in a lipid matrix. […] Nitric oxide is a very rapid acting molecule, and these studies used a system that employed laser Doppler with a covered chamber. The formulation was placed into the chamber and then attached to the skin by an adhesive layer on the covering. This provided a stable measuring device as determined by multiple normal evaluations of the capillary blood flow without treatment of nitric oxide.
A known positive control, methyl nicotinate, was applied to the skin at a concentration of 1/10% in alcohol. […] The vascular dynamics are such that when the blood vessels dilate physical parameters follow Bernoulli's law. […] The laser Doppler device accurately measured these parameters.
In these studies, the participants were healthy females aged 30 to 55 years. They were in good health as determined by the medical history and were not taking any prescription medications. All study participants read and signed the informed consent statement prior to any study procedures being performed. […]
A Moor Instruments DRT4 Laser Doppler Blood Flow Monitor (Devon, England) was used in these studies. The laser Doppler technique measured blood flow in the microcapillaries of the skin that are close to the skin surface and the blood flow in underlying arterioles and venules that help to regulate skin temperature. […]

For `COC(=O)c1cccnc1` [methyl nicotinate], the vasodilatation result in experiment [1] is “vasodilatation was observed”. In addition, the “vasodilator response (positive control)” value in experiment [2] is reported as “rapid response typical of the vasodilator”.
